Laboratory results taken from article PMC11142920, “De novo-designed transmembrane proteins bind and regulate a cytokine receptor” (Nature Chemical Biology, 2024).
Each block holds one molecule with its values, some of them ahead of it.

Legend:
mEpoR−GFP1-10 = test: Split GFP complementation with mEpoR−GFP1-10; assay type: cell-based, mouse; settings: flow cytometry, BaF3 cells
[1] = biological target: mEpoR-TM2 (isotope-labeled mEpoR TM domain fragment) (mouse); test: SDS-PAGE; mEpoR TM peptide on SDS-PAGE, non-covalent monomer and dimer bands
mEpoR = test: EPO-induced proliferation (growth inhibition) of BaF3/mEpoR cells expressing TM proteins; assay type: cell-based, mouse; settings: 0.06 U ml^−1 EPO, IL-3-free, 6-8 days; versus empty vector
Protocol: Mouse IL-3-dependent BaF3 and derivative cells were maintained in RPMI-10 medium: RPMI-1640 supplemented with 10% heat-inactivated FBS, 5% WEHI-3B cell-conditioned medium (as the source of IL-3), 4 mM L-glutamine, 0.06 mM β-mercaptoethanol and 1⨯ P-S. BaF3 cells expressing mEpoR, hEpoR and all EpoR mutants and chimeras were generated by infecting BaF3 cells with pMSCV-neo vector containing the desired HA-tagged EpoR gene. BaF3 cells (5 ⨯ 10^5) were washed with PBS and then resuspended in 500 μl of RPMI-10 medium with 4 μg ml^−1 polybrene. […]
For proliferation assays, 2 ⨯ 10^5 BaF3 and derivative cells expressing the appropriate genes were washed in PBS three times to remove IL-3. […] Viable cells were counted 6−8 days after IL-3 removal. […] The statistical significance of differences between control and experimental samples was evaluated by either one-tailed or two-tailed Student’s t-tests with unequal variance, performed using the T.TEST function in Microsoft Excel (2013).
For proliferation assays, BaF3/mEpoR/tTA cells expressing CHAMP proteins were first cultured in 10 ml of RPMI-10/IL-3 medium in the absence of Dox or supplemented with 100 or 200 pg ml^−1 Dox for 48 h. Then, 2 ⨯ 10^5 BaF3 cells were washed in PBS, resuspended in IL-3-free medium supplemented with the same concentration of Dox and 0.06 U ml^−1 human EPO, and counted as described above.

ErbB2−GFP1-10 = test: Split GFP complementation with ErbB2−GFP1-10; assay type: cell-based; settings: flow cytometry, BaF3 (tTa) cells, 1 pM doxycycline
mEpoR TM domain = settings: parallel self-interaction; ref [25]–[28]; cited from earlier work
Description: EpoR is a prototypical cytokine receptor whose TM domain contributes to both receptor homodimerization[25]–[27] and conformational coupling upon ligand binding[28],[29], activating the Janus kinase (JAK)−signal transducer and activator of transcription (STAT) pathway. […] In model membranes, designed TM peptides hosting SXXLXXX sequence repeats spontaneously homodimerize, strongly favoring parallel TM helix geometry like that of ...

[2] = biological target: GFP11−CHAMP-1 (Flag tag, GFP11, GGG linker, CHAMP-1); test: split reporter (BiFC, NanoBiT); split GFP complementation in BaF3 cells co-expressing a GFP1-10 fusion and a GFP11 fusion; mean fluorescence intensity by flow cytometry

Molecule: MDHLGASLWPQVGSLCLLLAGAAWERVQLAHHFSEPEITLIIFGVMAGVIGTILLISYGIRRLIGGSGGGGSGGRDHMVLHEYVNAAGIT [glycophorin A, GlycophorinA TM domain construct fused at its c-terminus to GFP11]
- fluorescence in mEpoR−GFP1-10 expressing cells (in words) (mEpoR−GFP1-10): fluorescence was not increased

- stoichiometry N [1]: 2
Molecule: mEpoR-TM2 (isotope-labeled mEpoR TM domain fragment) (peptide)

Molecule: MDHLGASLWPQVGSLCLLLAGAAWAPPLDPLILTLSLILVLISLLLTVLALLSHRRALKQKIWPGIPSPESEGPYSNPYENSLIPAAEPLPPSYVACS [mEpoR TM domain mimic protein, type I mEpoR TM domain mimic protein expressed in BaF3 cells]
- inhibition of EPO-induced proliferation (in words) (mEpoR): did not show inhibited proliferation

Molecule: MDHLGASLWPQVGSLCLLLAGAAWPVTFIIATVVGVLLFLILVVVVGILGGSGGGGSGGRDHMVLHEYVNAAGIT [ErbB2 TM domain fusion, ErbB2 TM domain construct fused to GFP11 at its c-terminus]
- complementation of ErbB2−GFP1-10 (ErbB2−GFP1-10): could complement ErbB2−GFP1-10
- fluorescence in mEpoR−GFP1-10 expressing cells (in words) (mEpoR−GFP1-10): fluorescence was not increased

Molecule: MRLPGAMPALALKGELLLLSLLLLLEPQISQGLVVTPKVVVISAILALVVLTIISLIILIMLWQKKPRYEIRWKVIESVSCPAPRAEAEDSFL [PDGFβR, unrelated platelet-derived growth factor β receptor TM domain protein construct]
- inhibition of EPO-induced proliferation (in words) (mEpoR): did not show inhibited proliferation

B1: mEpoR: mouse erythropoietin receptor (target); TM domain (protein)
chain: APSPSLPDPKFESKAALLASRGSEELLCFTQRLEDLVCFWEEAASSGMDFNYSFSYQLEGESRKSCSLHQAPTVRGSVRFWCSLPTADTSSFVPLELQVTEASGSPRYHRIIHINEVVLLDAPAGLLARRAEEGSHVVLRWLPPPGAPMTTHIRYEVDVSAGNRAGGTQRVEVLEGRTECVLSNLRGGTRYTFAVRARMAEPSFSGFWSAWSEPASLLTASDLDPLILTLSLILVLISLLLTVLALLSHRRTLQQKIWPGIPSPESEFEGLFTTHKGNFQLWLLQRDGCLWWSPGSSFPEDPPAHLEVLSEPRWAVTQAGDPGADDEGPLLEPVGSEHAQDTYLVLDKWLLPRTPCSENLSGPGGSVDPVTMDEASETSSCPSDLASKPRPEGTSPSSFEYTILDPSSQLLCPRALPPELPPTPPHLKYLYLVVSDSGISTDYSSGGSQGVHGDSSDGPYSHPYENSLVPDSEPLHPGYVACS
modifications: left off: HA, end not stated, kept
notes: mouse erythropoietin receptor (target); TM domain
- homodimerization of mEpoR TM domains (mEpoR TM domain): only weakly homodimerize

- fold MFI over cells expressing mEpoR−GFP1-10 alone or the CHAMP-1 fusion alone [2]: > 4 fold
B2: mEpoR−GFP1-10 fusion protein (domain or fragment)
chain: APSPSLPDPKFESKAALLASRGSEELLCFTQRLEDLVCFWEEAASSGMDFNYSFSYQLEGESRKSCSLHQAPTVRGSVRFWCSLPTADTSSFVPLELQVTEASGSPRYHRIIHINEVVLLDAPAGLLARRAEEGSHVVLRWLPPPGAPMTTHIRYEVDVSAGNRAGGTQRVEVLEGRTECVLSNLRGGTRYTFAVRARMAEPSFSGFWSAWSEPASLLTASDLDPLILTLSLI
